Data set [1] deals with H9. Description: Concentration required to produce 50% toxicity against mock-infected H9 cells. The data set is classed as functional, cell-based. The note with it: Homo sapiens.
Data set [2] deals with Human immunodeficiency virus 1. Kind of data set: Concentration required to inhibit 50% of HIV-1 (human immunodeficiency virus-1) replication; No suppression at concentrations up to 100 ug/mL. The data set is classed as functional, organism-based.
In data set [3] the test system is Human immunodeficiency virus 1. Kind of data set: Concentration required to inhibit 50% of HIV-1 (human immunodeficiency virus-1) replication. It is filed as functional, organism-based.
Data set [4] is described as follows: Therapeutic index expressed as ratio of IC50 for 50% toxicity to EC50 for 50% inhibition. The data set is classed as cell-based. To be noted: human, H9 cells; read-out: TI.

In ChEMBL document CHEMBL1138700, “3-O-Glutaryl-dihydrobetulin and related monoacyl derivatives as potent anti-HIV agents” (Bioorg Med Chem Lett, 2004) one finds IC50, EC50 and selectivity ratio data, which are given here for 13 compounds.

Some results are limits rather than exact numbers.

Take `C=C(C)[C@@H]1CC[C@]2(CO)CC[C@]3(C)[C@H](CC[C@@H]4[C@@]5(C)CC[C@H](OC(=O)CCC(=O)O)C(C)(C)[C@@H]5CC[C@]43C)[C@@H]12`: the IC50 in data set [1] is 26000 nM. In addition, in data set [2], the concentration for a half-maximal effect (EC50) entry is “No suppression”.

In data set [3], `CC(C)[C@@H]1CC[C@]2(CO)CC[C@]3(C)[C@H](CC[C@@H]4[C@@]5(C)CC[C@H](OC(=O)CCCC(=O)O)C(C)(C)[C@@H]5CC[C@]43C)[C@@H]12` had an EC50 of 0.02 nM. The selectivity ratio in data set [4] was 1.12e+06. The IC50 in data set [1] stood at 23600 nM.

Compound `C=C(C)[C@@H]1CC[C@]2(CO)CC[C@]3(C)[C@H](CC[C@@H]4[C@@]5(C)CC[C@H](OC(=O)CC(C)(C)C(=O)O)C(C)(C)[C@@H]5CC[C@]43C)[C@@H]12` registered an EC50 in data set [3] of 5.6 nM. In addition, the selectivity ratio in data set [4] came out at 5970. Moreover, the 50% inhibitory concentration (IC50) in data set [1] amounted to 33500 nM.

As for `C=C(C)[C@@H]1CC[C@]2(CO)CC[C@]3(C)[C@H](CC[C@@H]4[C@@]5(C)CC[C@H](OC(=O)CC(C)(C)CC(=O)O)C(C)(C)[C@@H]5CC[C@]43C)[C@@H]12`, in data set [3], the 50% effective concentration (EC50) is 4.4 nM. Further, the selectivity ratio in data set [4] is 6570. In data set [1], the half-maximal inhibitory concentration (IC50) was 28900 nM.

As for `CC(C)[C@@H]1CC[C@]2(CO)CC[C@]3(C)[C@H](CC[C@@H]4[C@@]5(C)CC[C@H](OC(=O)CC(C)(C)CC(=O)O)C(C)(C)[C@@H]5CC[C@]43C)[C@@H]12`, it took 1.3 nM to reach a half-maximal effect in data set [3] (EC50). The selectivity ratio in data set [4] was determined as 19500. Besides, half-maximal inhibition in data set [1] (IC50) was put at 25700 nM.

In data set [3], `C=C(C)[C@@H]1CC[C@]2(CO)CC[C@]3(C)[C@H](CC[C@@H]4[C@@]5(C)CC[C@H](OC(=O)CCCC(=O)O)C(C)(C)[C@@H]5CC[C@]43C)[C@@H]12` came in with an EC50 of 60 nM. The selectivity ratio in data set [4] turned out to be 670. The half-inhibitory concentration (IC50) in data set [1] turned out to be 44400 nM.

Take `CC(C)[C@@H]1CC[C@]2(CO)CC[C@]3(C)[C@H](CC[C@@H]4[C@@]5(C)CC[C@H](OC(=O)CC(C)(C)C(=O)O)C(C)(C)[C@@H]5CC[C@]43C)[C@@H]12`: in data set [3], a half-maximal effect (EC50) was put at 1.7 nM. In addition, in data set [4], the selectivity ratio came to 16200. This compound had a half-inhibitory concentration (IC50) in data set [1] of 27000 nM.

`C=C(C)[C@@H]1CC[C@]2(COC(=O)CC(C)(C)CC(=O)O)CC[C@]3(C)[C@H](CC[C@@H]4[C@@]5(C)CC[C@H](OC(=O)CC(C)(C)CC(=O)O)C(C)(C)[C@@H]5CC[C@]43C)[C@@H]12` came in with an EC50 in data set [3] of 0.66 nM. In addition, the selectivity ratio in data set [4] worked out at 21500.

Compound `C=C(C)[C@@H]1CC[C@]2(COC(=O)C(C)(C)CC(=O)O)CC[C@]3(C)[C@H](CC[C@@H]4[C@@]5(C)CC[C@H](OC(=O)CC(C)(C)C(=O)O)C(C)(C)[C@@H]5CC[C@]43C)[C@@H]12` came in with a half-maximal effective concentration (EC50) in data set [3] of 0.87 nM. Moreover, the selectivity ratio in data set [4] came out at 42400.

`C=C(C)[C@@H]1CC[C@]2(CO)CC[C@]3(C)[C@H](CC[C@@H]4[C@@]5(C)CC[C@H](OC(=O)COCC(=O)O)C(C)(C)[C@@H]5CC[C@]43C)[C@@H]12` registered an EC50 in data set [3] of 20 nM. Also, in data set [4], the selectivity ratio is greater than 1820. The compound also returned an IC50 in data set [1] greater than 44800 nM.

`C=C(C)[C@@H]1CC[C@]2(C(=O)O)CC[C@]3(C)[C@H](CC[C@@H]4[C@@]5(C)CC[C@H](O)C(C)(C)[C@@H]5CC[C@]43C)[C@@H]12` [BETULINIC ACID] had a 50% effective concentration (EC50) in data set [3] of 1400 nM. Also, the selectivity ratio in data set [4] was 9.2.

`C=C(C)[C@@H]1CC[C@]2(C(=O)O)CC[C@]3(C)[C@H](CC[C@@H]4[C@@]5(C)CC[C@H](OC(=O)CC(C)(C)C(=O)O)C(C)(C)[C@@H]5CC[C@]43C)[C@@H]12` [BEVIRIMAT]: the EC50 in data set [3] was less than 0.35 nM. In data set [4], the selectivity ratio was greater than 20000.

In data set [3], `Cc1cn([C@H]2C[C@H](N=[N+]=[N-])[C@@H](CO)O2)c(=O)[nH]c1=O` [ZIDOVUDINE] displayed an EC50 of 6.2 nM.
